# Data from patent US12583835B2, “Crystal form of nitroxoline prodrug, pharmaceutical composition containing same, and preparation method therefor and application thereof” (Jiangsu Yahong Meditech Co., Ltd., priority 2020, dated 2026).
# How the values were obtained:
# [1] = Stability test of crystal form A; assay type: physicochemical
# Description: The crystal forms obtained in Examples 2-10 were packaged in double-layer PE bags+aluminum foil bags+cardboard barrels, sealed and stored at a temperature of 40° C. and a relative humidity of 75%; a temperature of 25° C. and a relative humidity of 60%; at 5±3° C. for 6 months. The inspection items (appearance, moisture, related substance 1, related substance 2, content) were tested, and the specific test methods were as follows.
# • Moisture Meter • Electronic balance 1.2 Reagents • Karl Fischer titrant: analytical grad • Anhydrous methanol: analytical grade 1.3 Detection Method • About 50 mL of methanol was pumped into the titration beaker for pre-titration; • About 1.0 g of the test sample was accurately weighed and put into the titration beaker, stirred to dissolve, and the moisture of the test sample was titrated; • The weight of the test sample added, the concentration of the Karl Fischer titrant and the volume of the Karl Fischer titrant consumed during determination were recorded; the moisture of the second test sample was determined using the same method. 1.4 Calculation Formula
# [formula] • V—Volume of Karl Fischer titrant consumed for the test sample, mL; • F—Equivalent mass of water per 1 mL of Karl Fischer titrant, mg/mL; • W—Weighed sample amount of the test sample, g. 2 Related Substance 1 2.1 Chromatographic Conditions: High Performance Liquid Chromatography (HPLC) • Column: Waters XBridge C18 4.6×150 mm, 5 μm • Detector: UV or equivalent detector • Wavelength: 210 nm • Column temperature: 35° C. • Flow rate: 1.0 mL/min • Injection volume: 10 μL • Needle Wash: Acetonitrile • Mobile phase gradient: […]
# About 25 mg of the test sample was accurately weighed and put into a 50 mL volumetric flask. The diluent was added to dissolve the substance and dilute the solution to the mark, and the solution was shaken well.
# [formula] • AU—the peak area of impurities in the test sample solution; • AT—Total peak area of the test sample solution. • 2) Total impurity (%)=Σ single impurity
# • 3 Related Substance 2 (D-isobutyrylproline) • 3.1 Chromatographic Conditions: High Performance Liquid Chromatography (HPLC) • Column: Synergi Hydro RP 4.6×250 mm, 4 μm • Detector: UV or equivalent detector • Wave length: 210 nm • Column temperature: 35° C. • Flow rate: 1.0 mL/min • Injection volume: 5 μL • Needle Wash: Acetonitrile • Mobile phase gradient: […]
# About 20 mg of the test sample was accurately weighed and put into a 10 mL volumetric flask. The diluent was added to dissolve the test sample and dilute the solution to the mark, and the solution was shaken well. Two solutions were prepared in parallel and labeled as S1/S2 respectively. • 3.4 Calculation: Only the Peak of Related Substance 2 was Integrated
# [formula] [formula] • ARS2—Average peak area of reference solution 2; • ARS1—Average peak area of 5 injections of reference solution 1; • As—Peak area of related substance 2 in the test sample solution; • MRS1—Weighed sample amount of related substance 2 in reference solution 1, mg; • Ms—Weighed sample amount of the test sample in the test sample solution, mg; • MRS2—Weighed sample amount of related substance 2 in reference solution 2, mg; […]
# [2] = Dynamic vapour sorption (DVS); assay type: physicochemical
# Description: The DVS curves were acquired on DVS Intrinsic of SMS (Surface Measurement Systems). The relative humidity at 25° C. was corrected for the deliquescence points of LiCl, Mg(NO3)2 and KCl. • Test temperature: 25° C. • Sample amount: 10-20 mg • Shielding gas and flow: nitrogen, 200 mL/min • dm/dt: 0.002%/min; • Minimum dm/dt equilibration time: 10 min • Maximum equilibration time: 180 min • RH range: 0% RH-95% RH-0% RH • RH gradient: 10% 6. Polarizing Light Microscope (PLM)
# The X-ray powder diffraction (XRPD) pattern of the solid is shown in FIG. 1, and the XRPD diffraction peak data thereof is shown in Table 1 below. […] (onset temperature). […] The PLM results are shown in FIG. 5, which indicate that the solid is irregular crystal particles. This crystal form is defined as crystal form A.
compound,measurement,setting,value
"CC(C)C(=O)N1CCC[C@H]1C(=O)OCOc1ccc([N+](=O)[O-])c2cccnc12 [crystal form A, ((5-nitroquinolin-8-yl)oxy)methyl-isobutyryl-L-prolinate]",Appearance,"[1]; 5 ± 3° C., Time 0",Yellow solid
same,Content,"[1]; 5 ± 3° C., Time 0",101.1%
same,Moisture,"[1]; 5 ± 3° C., Time 0",0.09%
same,Related substance 1 5-Nitro-8-hydroxyquinoline,"[1]; 5 ± 3° C., Time 0",0.04%
same,Related substance 1 Impurity 1,"[1]; 5 ± 3° C., Time 0",0.27%
same,Related substance 1 Maximum unknown single impurity,"[1]; 5 ± 3° C., Time 0",RRT 1.126: 0.07%
same,Related substance 1 Total impurities,"[1]; 5 ± 3° C., Time 0",0.53%
same,Related substance 2,"[1]; 5 ± 3° C., Time 0",0.06%
same,Appearance,"[1]; 5 ± 3° C., Time 6 M",Yellow solid
same,Content,"[1]; 5 ± 3° C., Time 6 M",99.6%
same,Moisture,"[1]; 5 ± 3° C., Time 6 M",0.1%
same,Related substance 1 Impurity 1,"[1]; 5 ± 3° C., Time 6 M",0.3%
same,Related substance 1 Impurity 2,"[1]; 5 ± 3° C., Time 6 M",<0.01%
same,Related substance 1 Maximum unknown single impurity,"[1]; 5 ± 3° C., Time 6 M",RRT 1.121: 0.07%
same,Related substance 1 Total impurities,"[1]; 5 ± 3° C., Time 6 M",0.5%
same,Related substance 2,"[1]; 5 ± 3° C., Time 6 M",0.03%
same,Appearance,"[1]; 25° C., 60% RH, Time 0",Yellow solid
same,Content,"[1]; 25° C., 60% RH, Time 0",101.1%
same,Moisture,"[1]; 25° C., 60% RH, Time 0",0.09%
same,Related substance 1 Impurity 1,"[1]; 25° C., 60% RH, Time 0",0.27%
same,Related substance 1 Maximum unknown single impurity,"[1]; 25° C., 60% RH, Time 0",RRT 1.126: 0.07%
same,Related substance 1 Total impurities,"[1]; 25° C., 60% RH, Time 0",0.53%
same,Related substance 2,"[1]; 25° C., 60% RH, Time 0",0.06%
same,Appearance,"[1]; 25° C., 60% RH, Time 3 M",Yellow solid
same,Content,"[1]; 25° C., 60% RH, Time 3 M",99.3%
same,Moisture,"[1]; 25° C., 60% RH, Time 3 M",0.07%
same,Related substance 1 Impurity 1,"[1]; 25° C., 60% RH, Time 3 M",0.32%
same,Related substance 1 Impurity 2,"[1]; 25° C., 60% RH, Time 3 M",<0.01%
same,Related substance 1 Maximum unknown single impurity,"[1]; 25° C., 60% RH, Time 3 M",RRT 1.123: 0.06%
same,Related substance 1 Total impurities,"[1]; 25° C., 60% RH, Time 3 M",0.51%
same,Related substance 2,"[1]; 25° C., 60% RH, Time 3 M",0.04%
same,Appearance,"[1]; 25° C., 60% RH, Time 6 M",Yellow solid
same,Content,"[1]; 25° C., 60% RH, Time 6 M",99.8%
same,Moisture,"[1]; 25° C., 60% RH, Time 6 M",<0.1%
same,Related substance 1 Impurity 1,"[1]; 25° C., 60% RH, Time 6 M",0.3%
same,Related substance 1 Impurity 2,"[1]; 25° C., 60% RH, Time 6 M",<0.01%
same,Related substance 1 Maximum unknown single impurity,"[1]; 25° C., 60% RH, Time 6 M",RRT 1.121: 0.06%
same,Related substance 1 Total impurities,"[1]; 25° C., 60% RH, Time 6 M",0.5%
same,Related substance 2,"[1]; 25° C., 60% RH, Time 6 M",0.04%
same,Appearance,"[1]; 40° C., 75% RH, Time 0",Yellow solid
same,Content,"[1]; 40° C., 75% RH, Time 0",101.1%
same,Moisture,"[1]; 40° C., 75% RH, Time 0",0.09%
same,Related substance 1 5-Nitro-8-hydroxyquinoline,"[1]; 40° C., 75% RH, Time 0",0.04%
same,Related substance 1 Impurity 1,"[1]; 40° C., 75% RH, Time 0",0.27%
same,Related substance 1 Maximum unknown single impurity,"[1]; 40° C., 75% RH, Time 0",RRT 1.126: 0.07%
same,Related substance 1 Total impurities,"[1]; 40° C., 75% RH, Time 0",0.53%
same,Related substance 2,"[1]; 40° C., 75% RH, Time 0",0.06%
same,Appearance,"[1]; 40° C., 75% RH, Time 1 M",Yellow solid
same,Content,"[1]; 40° C., 75% RH, Time 1 M",101.1%
same,Moisture,"[1]; 40° C., 75% RH, Time 1 M",0.06%
same,Related substance 1 5-Nitro-8-hydroxyquinoline,"[1]; 40° C., 75% RH, Time 1 M",0.02%
same,Related substance 1 Impurity 1,"[1]; 40° C., 75% RH, Time 1 M",0.27%
same,Related substance 1 Maximum unknown single impurity,"[1]; 40° C., 75% RH, Time 1 M",RRT 1.125: 0.06%
same,Related substance 1 Total impurities,"[1]; 40° C., 75% RH, Time 1 M",0.52%
same,Related substance 2,"[1]; 40° C., 75% RH, Time 1 M",0.05%
same,Appearance,"[1]; 40° C., 75% RH, Time 2 M",Yellow solid
same,Content,"[1]; 40° C., 75% RH, Time 2 M",98.8%
same,Moisture,"[1]; 40° C., 75% RH, Time 2 M",0.09%
same,Related substance 1 Impurity 1,"[1]; 40° C., 75% RH, Time 2 M",0.27%
same,Related substance 1 Impurity 2,"[1]; 40° C., 75% RH, Time 2 M",0.01%
same,Related substance 1 Maximum unknown single impurity,"[1]; 40° C., 75% RH, Time 2 M",RRT 1.132: 0.05%
same,Related substance 1 Total impurities,"[1]; 40° C., 75% RH, Time 2 M",0.44%
same,Related substance 2,"[1]; 40° C., 75% RH, Time 2 M",0.06%
same,Appearance,"[1]; 40° C., 75% RH, Time 3 M",Yellow solid
same,Content,"[1]; 40° C., 75% RH, Time 3 M",99.3%
same,Moisture,"[1]; 40° C., 75% RH, Time 3 M",0.06%
same,Related substance 1 Impurity 1,"[1]; 40° C., 75% RH, Time 3 M",0.32%
same,Related substance 1 Maximum unknown single impurity,"[1]; 40° C., 75% RH, Time 3 M",RRT 1.123: 0.05%
same,Related substance 1 Total impurities,"[1]; 40° C., 75% RH, Time 3 M",0.49%
same,Related substance 2,"[1]; 40° C., 75% RH, Time 3 M",0.10%
same,Appearance,"[1]; 40° C., 75% RH, Time 6 M",Yellow solid
same,Content,"[1]; 40° C., 75% RH, Time 6 M",99.7%
same,Moisture,"[1]; 40° C., 75% RH, Time 6 M",<0.1%
same,Related substance 1 5-Nitro-8-hydroxyquinoline,"[1]; 40° C., 75% RH, Time 6 M",<0.1%
same,Related substance 1 Impurity 1,"[1]; 40° C., 75% RH, Time 6 M",0.3%
same,Related substance 1 Impurity 2,"[1]; 40° C., 75% RH, Time 6 M",<0.01%
same,Related substance 1 Maximum unknown single impurity,"[1]; 40° C., 75% RH, Time 6 M",RRT 0.896: 0.04%
same,Related substance 1 Total impurities,"[1]; 40° C., 75% RH, Time 6 M",0.6%
same,Related substance 2,"[1]; 40° C., 75% RH, Time 6 M",0.15%
same,crystal form before and after the DVS test (XRPD),[2],unchanged
same,vapor sorption (DVS),[2]; 25° C./80% RH,0.17%
